Laboratory results from publication PMC10482691, “LTP induction by structural rather than enzymatic functions of CaMKII” (Nature, 2023).

Columns and labels:
Assay type in all cases: biochemical
MAPK1(h) = MAPK1(h) (Homo sapiens, UniProt P27361); assay: Kinase selectivity panel (residual activity at 1 μM); conditions: inhibitor at 1 μM; read-out: residual kinase activity in % of maximal activity
MEK1(h) = MEK1(h) (Homo sapiens, UniProt Q02750); assay: as above; conditions: inhibitor at 1 μM; read-out: residual kinase activity in % of maximal activity
MEK1(h), sequence (Q02750 whole entry): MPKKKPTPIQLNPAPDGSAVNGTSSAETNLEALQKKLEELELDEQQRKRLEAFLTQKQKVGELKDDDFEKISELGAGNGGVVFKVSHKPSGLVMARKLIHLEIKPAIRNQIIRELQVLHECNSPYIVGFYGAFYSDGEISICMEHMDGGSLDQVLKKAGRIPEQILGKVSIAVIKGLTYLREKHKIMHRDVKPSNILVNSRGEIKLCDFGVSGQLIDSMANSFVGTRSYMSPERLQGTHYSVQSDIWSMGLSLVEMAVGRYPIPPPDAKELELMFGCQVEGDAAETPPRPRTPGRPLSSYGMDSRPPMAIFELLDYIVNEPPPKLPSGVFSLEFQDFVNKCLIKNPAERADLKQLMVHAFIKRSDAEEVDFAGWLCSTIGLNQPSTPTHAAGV

p70S6K(h) = p70S6K(h) (Homo sapiens, UniProt P23443); assay: as above; conditions: inhibitor at 1 μM; read-out: residual kinase activity in % of maximal activity
p70S6K(h), sequence (P23443 whole entry): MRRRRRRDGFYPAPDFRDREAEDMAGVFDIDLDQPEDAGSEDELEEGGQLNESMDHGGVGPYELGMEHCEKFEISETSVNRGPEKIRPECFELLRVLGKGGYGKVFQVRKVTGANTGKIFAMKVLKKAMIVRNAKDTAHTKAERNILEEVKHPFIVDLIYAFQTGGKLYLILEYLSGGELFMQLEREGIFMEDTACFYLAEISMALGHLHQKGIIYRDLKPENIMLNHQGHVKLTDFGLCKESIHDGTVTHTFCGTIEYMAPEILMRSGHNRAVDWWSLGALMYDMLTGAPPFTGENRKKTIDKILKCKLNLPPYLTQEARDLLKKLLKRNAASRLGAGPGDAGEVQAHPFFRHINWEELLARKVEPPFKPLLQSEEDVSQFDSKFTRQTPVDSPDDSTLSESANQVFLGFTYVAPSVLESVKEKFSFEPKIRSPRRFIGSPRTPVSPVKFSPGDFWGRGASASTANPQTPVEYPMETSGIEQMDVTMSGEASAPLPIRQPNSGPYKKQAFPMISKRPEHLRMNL

PKCδ(h) = PKCδ(h) (Homo sapiens, UniProt Q05655); assay: as above; conditions: inhibitor at 1 μM; read-out: residual kinase activity in % of maximal activity
PKCδ(h), sequence (Q05655 whole entry): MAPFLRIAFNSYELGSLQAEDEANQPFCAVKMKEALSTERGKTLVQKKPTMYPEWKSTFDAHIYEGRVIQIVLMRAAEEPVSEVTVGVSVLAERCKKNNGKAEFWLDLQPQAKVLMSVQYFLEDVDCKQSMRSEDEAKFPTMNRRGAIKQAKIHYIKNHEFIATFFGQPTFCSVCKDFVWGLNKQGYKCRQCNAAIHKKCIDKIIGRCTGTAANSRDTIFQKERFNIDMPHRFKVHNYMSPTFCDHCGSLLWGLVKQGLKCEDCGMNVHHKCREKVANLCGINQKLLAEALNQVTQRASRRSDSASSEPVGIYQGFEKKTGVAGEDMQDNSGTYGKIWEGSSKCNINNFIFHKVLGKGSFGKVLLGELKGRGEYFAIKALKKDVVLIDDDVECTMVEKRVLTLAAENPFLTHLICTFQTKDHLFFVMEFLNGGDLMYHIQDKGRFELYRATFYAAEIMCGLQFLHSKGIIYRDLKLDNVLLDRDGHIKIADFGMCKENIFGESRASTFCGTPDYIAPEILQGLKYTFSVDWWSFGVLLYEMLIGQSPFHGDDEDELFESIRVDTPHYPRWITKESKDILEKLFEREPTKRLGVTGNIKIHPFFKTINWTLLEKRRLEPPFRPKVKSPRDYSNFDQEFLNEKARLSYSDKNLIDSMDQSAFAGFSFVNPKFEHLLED

CaMKIIα WT = CaMKIIα WT (Homo sapiens, UniProt Q9UQM7); assay: In vitro kinase reactions with CaMKII WT ± NM-PP1 (pT286, pS831)
Method: Fig. 4 The CaMKII mutation F89G impairs ATP binding but binds the ATP-competitive inhibitor NM-PP1 that restores GluN2B binding and LTP-induced synaptic translocation. Data are presented as mean values ± s.e.m. a, Schematic of the pharmacogenetic method of ATP-competitive CaMKII inhibition; enlargement of the CaMKII ATP-binding pocket by the F89G mutation allows for selective binding of the ATP-competitive inhibitor NM-PP1. b, Immunoblots of in vitro kinase reactions at 30 °C including GFP–CaMKII WT, K42M and F89G with GST–GluA1-c tail. […] Correlation indices were measured before and after Ionomycin-induced colocalization of GFP–CaMKII (WT, K42M and F89G) with mCherry-2BC, represented as change in the correlation index (vehicle: n = 22, 17, 12 cells; NM-PP1: n = 20, 24, 13 cells; one-way ANOVA, Tukey’s multiple comparisons test). […] CaMKII synaptic enrichment was measured before and after cLTP (n = 13, 14, 14 cells; RM two-way ANOVA with Šídák’s multiple comparisons test). […] CaMKII synaptic enrichment was measured before and after cLTP (n = 7, 6, 7 cells; RM two-way ANOVA with Šídák’s multiple comparisons test). […]
CaMKII-mediated phosphorylation of GluA1 S831 or GluN2B S1303 was measured by in vitro kinase reaction with a purified GST–GluA1 C-terminal tail or GST-GluN2B C-terminal tail. […]

MAPK1(h), sequence (P27361 whole entry): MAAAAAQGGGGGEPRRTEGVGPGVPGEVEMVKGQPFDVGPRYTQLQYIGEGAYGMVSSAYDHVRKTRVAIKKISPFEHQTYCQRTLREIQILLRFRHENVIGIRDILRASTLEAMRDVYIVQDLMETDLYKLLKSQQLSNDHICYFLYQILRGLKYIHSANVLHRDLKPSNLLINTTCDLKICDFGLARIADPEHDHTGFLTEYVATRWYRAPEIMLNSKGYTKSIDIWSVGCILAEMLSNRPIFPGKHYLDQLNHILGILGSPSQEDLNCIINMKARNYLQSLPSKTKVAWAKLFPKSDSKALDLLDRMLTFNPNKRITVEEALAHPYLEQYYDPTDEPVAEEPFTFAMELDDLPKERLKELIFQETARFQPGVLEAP

| Structure (SMILES) | remaining activity at 1 µM (MAPK1(h)) [%] | remaining activity at 1 µM (MEK1(h)) [%] | remaining activity at 1 µM (p70S6K(h)) [%] | remaining activity at 1 µM (PKCδ(h)) [%] | effect on pT286 for CaMKII WT (CaMKIIα WT) |
| --- | --- | --- | --- | --- | --- |
| NCCNc1cccc(-c2ccnc3[nH]c4ccccc4c23)c1 [AS283] | 102 | 85 | 18 | 39 |  |
| CC(C)(C)n1nc(Cc2cccc3ccccc23)c2c(N)ncnc21 [NM-PP1] |  |  |  |  | did not affect |
